The values that follow come from ChEMBL document CHEMBL4402526, “Design and Synthesis of Fungal-Selective Resorcylate Aminopyrazole Hsp90 Inhibitors” (J Med Chem, 2020).

Usually EC50 stands for the midpoint of the concentration-response curve. Read a high EC50 as a need for much substance. In general, half-life refers to the time needed for the level to fall by half in the phase considered. Read a low half-life as fast loss.

For data set [1], the system named is Cryptococcus neoformans. Nature of the data set: Antifungal activity against Cryptococcus neoformans H99 assessed as fungal growth inhibition at <= […] uM measured after 48 hrs by resazurin assay. The class given is functional, organism-based. In general terms: Resazurin is reduced to fluorescent resorufin, in cell work by metabolically active cells.
The nature of data set [2]: Displacement of Cy3-labeled geldanamycin from HSP90 in Candida albicans clinical isolate 2 cell lysate measured after […] by fluorescence polarization assay. The class given is subcellular. (In general: In fluorescence polarisation assays a small probe gives low polarisation when free and higher when bound to something large.)
Data set [3] concerns Candida albicans. The data set can be described thus: Antifungal activity against Candida albicans clinical isolate 2 assessed as fungal growth inhibition at <= […] uM measured after 48 hrs by resazurin assay. The data set is classed as functional, organism-based.
The nature of data set [4]: Microsomal stability in CD-1 mouse liver microsomes assessed as parent compound remaining at 1 uM measured at 60 mins by LC-MS/MS analysis. The data set is classed as ADME, Microsome. As to conditions: read-out: Stability.
A short description of data set [5]: Half life in CD-1 mouse liver microsomes at 1 uM measured up to 120 mins by LC-MS/MS analysis.
The test system of data set [6] is Candida albicans. Nature of the data set: Fungicidal activity against Candida albicans clinical isolate 2 incubated for 48 hrs in presence of fluconazole followed by replating on YDP agar plate and measured after 24 hrs. The class given is functional, organism-based.

Active and inactive are the calls of the source. Bounds are passed on as bounds.

Regarding `COc1ccc(Cn2nc(-c3ccccc3)cc2Nc2cc(O)cc(O)c2C(=O)N(C)CC2CC2)cc1`, the result in data set [1] and in data set [3] was Active. For the same compound, the EC50 in data set [2] was > 9 µM.

With `COc1ccc(Cn2nc(C)cc2Nc2cc(O)cc(O)c2C(=O)N(C)CC2CC2)cc1`, the outcome in data set [1] and in data set [3] was Active. For the same compound, the EC50 in data set [2] was > 9 µM.

As to `COc1cccc(-c2cc(Nc3cc(O)cc(O)c3C(=O)N3Cc4cn[nH]c4C3)n(C)n2)c1`, the remaining at 1 h, 1 µM in data set [4] worked out at 7%. Further, the outcome in data set [1] and in data set [3] was Active.

For the compound `COc1ccc(Cn2nc(C)cc2Nc2cc(O)cc(O)c2C(=O)N(C)Cc2ccccc2)cc1`, the outcome in data set [1] and in data set [3] was Active. For the same compound, in data set [2], the EC50 is > 6 µM.

For the compound `COc1cccc(-c2cc(Nc3cc(O)cc(O)c3C(=O)N3Cc4cccnc4C3)n(C)n2)c1`, the remaining at 1 h, 1 µM in data set [4] was found to be 0%. For the same compound, the outcome in data set [1] and in data set [3] was Active. Moreover, the half-life at 2 h, 1 µM in data set [5] was determined as 3.44 min.

As to `COc1ccc(Cn2nc(C)cc2Nc2cc(O)cc(O)c2C(=O)N2Cc3ccc(F)cc3C2)cc1`, the outcome in data set [1] and in data set [3] was Active.

For the compound `Cn1nc(-c2ccc(OC(F)(F)F)cc2)cc1Nc1cc(O)cc(O)c1C(=O)N1Cc2cccnc2C1`, the remaining at 1 h, 1 µM in data set [4] is 3.9%. Besides, the outcome in data set [1] and in data set [3] was Active.

On to `O=C(c1c(O)cc(O)cc1Nc1ccnn1-c1ccccc1)N1Cc2cccnc2C1`, for which the outcome in data set [1] and in data set [3] was Active.

Take `Cn1nc(-c2ccc(C(C)(C)C)cc2)cc1Nc1cc(O)cc(O)c1C(=O)N1Cc2cn[nH]c2C1`: in data set [4], the remaining at 1 h, 1 µM was found to be 0.5%. In addition, the outcome in data set [1] and in data set [3] was Active. Also, the half-life at 2 h, 1 µM in data set [5] is 6.44 min.

`CC(C)n1nccc1Nc1cc(O)cc(O)c1C(=O)N1Cc2ccccc2C1`: the outcome in data set [1] and in data set [3] was Active.

In the case of `O=C(c1c(O)cc(O)cc1Nc1cc(-c2ccccc2)nn1C1CCCCC1)N1Cc2cn[nH]c2C1`, the outcome in data set [1] and in data set [3] was Active.

For the compound `O=C(c1c(O)cc(O)cc1Nc1ccnn1CC1CCCCC1)N1Cc2cccnc2C1`, the outcome in data set [1] and in data set [3] was Active.

Take `CC(C)Cn1nc(-c2ccccc2)cc1Nc1cc(O)cc(O)c1C(=O)N1Cc2cn[nH]c2C1`: the outcome in data set [1] and in data set [3] was Active.

Regarding `COc1ccc(Cn2nc(C)cc2Nc2cc(O)cc(O)c2C(=O)N2Cc3ccccc3C2)cc1`, the result in data set [1] and in data set [3] was Active.

As for `Cn1nc(-c2ccc(C(C)(C)C)cc2)cc1Nc1cc(O)cc(O)c1C(=O)N1Cc2cccnc2C1`, the outcome in data set [1] and in data set [3] was Active.

As for `Cc1ccc(-c2cc(Nc3cc(O)cc(O)c3C(=O)N3Cc4ccccc4C3)n(C)n2)cc1`, the outcome in data set [1] and in data set [3] was Active.

In the case of `O=C(c1c(O)cc(O)cc1Nc1ccnn1-c1ccccc1)N1Cc2ccccc2C1`, the outcome in data set [1] and in data set [3] was Active.

Consider `Cc1ccccc1-c1cc(Nc2cc(O)cc(O)c2C(=O)N2Cc3cn[nH]c3C2)n(C)n1`, for which the outcome in data set [1] and in data set [3] was Active.

In the case of `COc1ccc(Cn2nc(C(C)(C)C)cc2Nc2cc(O)cc(O)c2C(=O)N2Cc3ccccc3C2)cc1`, the result in data set [1] and in data set [3] was Active.

On to `O=C(c1c(O)cc(O)cc1Nc1ccnn1Cc1ccccc1)N1Cc2ccccc2C1`, for which the outcome in data set [1] and in data set [3] was Active.

As to `COc1ccc(Cn2nc(-c3ccccc3)cc2Nc2cc(O)cc(O)c2C(=O)N2Cc3ccc(F)cc3C2)cc1`, the outcome in data set [1] and in data set [3] was Active.

As for `COc1ccc(-c2cc(Nc3cc(O)cc(O)c3C(=O)N3Cc4cn[nH]c4C3)n(C)n2)cc1`, the outcome in data set [1] and in data set [3] was Active.

Regarding `CC(C)c1ccc(Cn2nccc2Nc2cc(O)cc(O)c2C(=O)N2Cc3ccccc3C2)cc1`, in data set [4], the remaining at 1 h, 1 µM was found to be 1.8%. Further, the outcome in data set [1] and in data set [3] was Active. This compound gave a half-life at 2 h, 1 µM in data set [5] of 3.1 min.

Take `COc1ccc(Cn2nc(C3CC3)cc2Nc2cc(O)cc(O)c2C(=O)N2Cc3cn[nH]c3C2)cc1`: the outcome in data set [1] and in data set [3] was Active.

For `COc1ccc(Cn2nc(-c3ccccc3)cc2Nc2cc(O)cc(O)c2C(=O)N2CCCC2)cc1`, the outcome in data set [1] and in data set [3] was Active.

As to `CC(C)c1ccc(Cn2nccc2Nc2cc(O)cc(O)c2C(=O)N2Cc3cccnc3C2)cc1`, the result in data set [1] and in data set [3] was Active.

`Cc1cccc(-c2cc(Nc3cc(O)cc(O)c3C(=O)N3Cc4cn[nH]c4C3)n(C)n2)c1`: the remaining at 1 h, 1 µM in data set [4] was 1.8%. Also, the result in data set [1] and in data set [3] was Active. This compound also came in with a half-life at 2 h, 1 µM in data set [5] of 9.38 min.

Turning to `COc1ccc(Cn2nc(-c3ccoc3)cc2Nc2cc(O)cc(O)c2C(=O)N2Cc3cccnc3C2)cc1`, the result in data set [1] and in data set [3] was Active.

`Cn1nc(-c2cccc(C(F)(F)F)c2)cc1Nc1cc(O)cc(O)c1C(=O)N1Cc2cccnc2C1`: the outcome in data set [1] and in data set [3] was Active.

As for `Cn1nc(-c2ccc(OC(F)(F)F)cc2)cc1Nc1cc(O)cc(O)c1C(=O)N1Cc2cn[nH]c2C1`, in data set [4], the remaining at 1 h, 1 µM turned out to be 20.6%. For the same compound, the outcome in data set [1] and in data set [3] was Active.

For `COc1ccc(Cn2nc(-c3ccccc3)cc2Nc2cc(O)cc(O)c2C(=O)N2Cc3ccc(OCCN(C)C)cc3C2)cc1`, the outcome in data set [1] and in data set [3] was Active.

Take `Cn1nc(-c2ccc(C(F)(F)F)cc2)cc1Nc1cc(O)cc(O)c1C(=O)N1Cc2cn[nH]c2C1`: the outcome in data set [1] and in data set [3] was Active.

Turning to `O=C(c1c(O)cc(O)cc1Nc1ccnn1Cc1cccnc1)N1Cc2ccccc2C1`, the outcome in data set [1] and in data set [3] was Active.

For `Cc1cccc(-c2cc(Nc3cc(O)cc(O)c3C(=O)N3Cc4ccccc4C3)n(C)n2)c1`, the result in data set [1] and in data set [3] was Active.

Turning to `CC(C)(C)n1nc(-c2ccccc2)cc1Nc1cc(O)cc(O)c1C(=O)N1Cc2cn[nH]c2C1`, the outcome in data set [1] and in data set [3] was Active.

Consider `Cc1ccc(-c2cc(Nc3cc(O)cc(O)c3C(=O)N3Cc4cn[nH]c4C3)n(C)n2)cc1`, for which the outcome in data set [1] and in data set [3] was Active.

In the case of `O=C(c1c(O)cc(O)cc1Nc1ccnn1Cc1ccc(C(F)(F)F)cc1)N1Cc2cn[nH]c2C1`, the outcome in data set [1] and in data set [3] was Active.

In the case of `CCN(CC)C(=O)c1c(O)cc(O)cc1Nc1cc(-c2ccccc2)nn1Cc1ccc(OC)cc1`, the outcome in data set [1] and in data set [3] was Active. For the same compound, the EC50 in data set [2] was > 10 µM.

Consider `O=C(c1c(O)cc(O)cc1Nc1ccnn1Cc1ccccc1)N1Cc2cccnc2C1`, for which the outcome in data set [1] and in data set [3] was Active.

Regarding `COc1ccc(Cn2nc(C)cc2Nc2cc(O)cc(O)c2C(=O)N2Cc3ccc(OCCN(C)C)cc3C2)cc1`, the result in data set [1] and in data set [3] was Active.

With `COc1cccc(-c2cc(Nc3cc(O)cc(O)c3C(=O)N3Cc4ccccc4C3)n(C)n2)c1`, the remaining at 1 h, 1 µM in data set [4] was found to be 0%. The outcome in data set [1] and in data set [3] was Active. Also, in data set [5], the half-life at 2 h, 1 µM was found to be 3.15 min.

For the compound `Cc1cc(Nc2cc(O)cc(O)c2C(=O)N2Cc3ccccc3C2)n(Cc2ccccc2C)n1`, the outcome in data set [1] and in data set [3] was Active.

Regarding `COc1ccc(Cn2ncc(C)c2Nc2cc(O)cc(O)c2C(=O)N2Cc3ccccc3C2)cc1`, the result in data set [1], in data set [3] and in data set [6] was Active.

As for `O=C(c1c(O)cc(O)cc1Nc1ccnn1-c1ccccc1)N1Cc2cn[nH]c2C1`, the outcome in data set [1] and in data set [3] was Active.

For the compound `COc1ccc(Cn2ncc(C(C)C)c2Nc2cc(O)cc(O)c2C(=O)N2Cc3ccccc3C2)cc1`, the result in data set [1] and in data set [3] was Active.

As for `CC(C)c1cc(Nc2cc(O)cc(O)c2C(=O)N2Cc3cn[nH]c3C2)n(C)n1`, the result in data set [1] and in data set [3] was Active.

As to `COc1ccc(Cn2nccc2Nc2cc(O)cc(O)c2C(=O)N2Cc3ccccc3C2)cc1`, the outcome in data set [1] and in data set [3] was Active.

In the case of `Cn1nc(-c2ccc(C(F)(F)F)cc2)cc1Nc1cc(O)cc(O)c1C(=O)N1Cc2cccnc2C1`, the result in data set [1] and in data set [3] was Active.

As for `COc1ccc(Cn2nc(C3CC3)cc2Nc2cc(O)cc(O)c2C(=O)N2Cc3cccnc3C2)cc1`, the outcome in data set [1] and in data set [3] was Active.

Regarding `CC(C)n1nccc1Nc1cc(O)cc(O)c1C(=O)N1Cc2cn[nH]c2C1`, the result in data set [1] and in data set [3] was Active.

In the case of `Cn1nc(C2CCCCC2)cc1Nc1cc(O)cc(O)c1C(=O)N1Cc2cn[nH]c2C1`, in data set [4], the remaining at 1 h, 1 µM stood at 0.06%. Besides, the result in data set [1] and in data set [3] was Active. The compound also returned a half-life at 2 h, 1 µM in data set [5] of 2.74 min.
